Reference: BigSolDB 2.1

c1ccc2c(c1)Nc1ccccc1S2
solubility (mole fraction)
Conditions | 298.2 K | 308.2 K | 318.2 K | 328.2 K | 338.2 K
in ethanol | 0.00876 | 0.01 | 0.0122 | 0.0145 | –
in propylene glycol | 0.00416 | 0.0054 | 0.00656 | 0.00763 | 0.00852
in water | 1.56e-07 | 1.98e-07 | 2.52e-07 | 3.58e-07 | 4.91e-07
